The source of these data is US20250213558A1, “T-TYPE CALCIUM CHANNEL MODULATORS COMPRISING A PIPERAZINE OR 1,4-DIAZEPANE CORE AND METHODS OF USE THEREOF” (Praxis Precision Medicines, Inc., priority 2022, published 2025).

The target in this experiment is T1, Human Cav3.1 calcium channel (Homo sapiens, UniProt O43497).
T1 construct: expressed in transfected cells; host or cells: HEK-293 natClytin/TASK1+Cav3.1 cell line
Description: Human Cav3.1 calcium channel patch clamp assay (SyncroPatch 384PE; single point and IC50, voltage dependent block). The conditions noted are these: HEK-293 natClytin/TASK1+Cav3.1 cell line; for % Inhibition (Single Point Data): Testing Conc 1.25, patch clamp; for IC50: voltage dependent block (VDB), read-out: Cav3.1 IC50. The class given is cell-based. A digest of the protocol:
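Automated whole-cell patch clamp at room temperature, cells held at −120 mV; 100 ms step to −20 mV (resting block), then 1600 ms at −65 mV and a second −20 mV step (voltage-dependent block), every 15 s. Peak currents averaged over last 3 sweeps; % inhibition relative to nickel-sensitive current.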

T1 sequence (O43497 whole entry): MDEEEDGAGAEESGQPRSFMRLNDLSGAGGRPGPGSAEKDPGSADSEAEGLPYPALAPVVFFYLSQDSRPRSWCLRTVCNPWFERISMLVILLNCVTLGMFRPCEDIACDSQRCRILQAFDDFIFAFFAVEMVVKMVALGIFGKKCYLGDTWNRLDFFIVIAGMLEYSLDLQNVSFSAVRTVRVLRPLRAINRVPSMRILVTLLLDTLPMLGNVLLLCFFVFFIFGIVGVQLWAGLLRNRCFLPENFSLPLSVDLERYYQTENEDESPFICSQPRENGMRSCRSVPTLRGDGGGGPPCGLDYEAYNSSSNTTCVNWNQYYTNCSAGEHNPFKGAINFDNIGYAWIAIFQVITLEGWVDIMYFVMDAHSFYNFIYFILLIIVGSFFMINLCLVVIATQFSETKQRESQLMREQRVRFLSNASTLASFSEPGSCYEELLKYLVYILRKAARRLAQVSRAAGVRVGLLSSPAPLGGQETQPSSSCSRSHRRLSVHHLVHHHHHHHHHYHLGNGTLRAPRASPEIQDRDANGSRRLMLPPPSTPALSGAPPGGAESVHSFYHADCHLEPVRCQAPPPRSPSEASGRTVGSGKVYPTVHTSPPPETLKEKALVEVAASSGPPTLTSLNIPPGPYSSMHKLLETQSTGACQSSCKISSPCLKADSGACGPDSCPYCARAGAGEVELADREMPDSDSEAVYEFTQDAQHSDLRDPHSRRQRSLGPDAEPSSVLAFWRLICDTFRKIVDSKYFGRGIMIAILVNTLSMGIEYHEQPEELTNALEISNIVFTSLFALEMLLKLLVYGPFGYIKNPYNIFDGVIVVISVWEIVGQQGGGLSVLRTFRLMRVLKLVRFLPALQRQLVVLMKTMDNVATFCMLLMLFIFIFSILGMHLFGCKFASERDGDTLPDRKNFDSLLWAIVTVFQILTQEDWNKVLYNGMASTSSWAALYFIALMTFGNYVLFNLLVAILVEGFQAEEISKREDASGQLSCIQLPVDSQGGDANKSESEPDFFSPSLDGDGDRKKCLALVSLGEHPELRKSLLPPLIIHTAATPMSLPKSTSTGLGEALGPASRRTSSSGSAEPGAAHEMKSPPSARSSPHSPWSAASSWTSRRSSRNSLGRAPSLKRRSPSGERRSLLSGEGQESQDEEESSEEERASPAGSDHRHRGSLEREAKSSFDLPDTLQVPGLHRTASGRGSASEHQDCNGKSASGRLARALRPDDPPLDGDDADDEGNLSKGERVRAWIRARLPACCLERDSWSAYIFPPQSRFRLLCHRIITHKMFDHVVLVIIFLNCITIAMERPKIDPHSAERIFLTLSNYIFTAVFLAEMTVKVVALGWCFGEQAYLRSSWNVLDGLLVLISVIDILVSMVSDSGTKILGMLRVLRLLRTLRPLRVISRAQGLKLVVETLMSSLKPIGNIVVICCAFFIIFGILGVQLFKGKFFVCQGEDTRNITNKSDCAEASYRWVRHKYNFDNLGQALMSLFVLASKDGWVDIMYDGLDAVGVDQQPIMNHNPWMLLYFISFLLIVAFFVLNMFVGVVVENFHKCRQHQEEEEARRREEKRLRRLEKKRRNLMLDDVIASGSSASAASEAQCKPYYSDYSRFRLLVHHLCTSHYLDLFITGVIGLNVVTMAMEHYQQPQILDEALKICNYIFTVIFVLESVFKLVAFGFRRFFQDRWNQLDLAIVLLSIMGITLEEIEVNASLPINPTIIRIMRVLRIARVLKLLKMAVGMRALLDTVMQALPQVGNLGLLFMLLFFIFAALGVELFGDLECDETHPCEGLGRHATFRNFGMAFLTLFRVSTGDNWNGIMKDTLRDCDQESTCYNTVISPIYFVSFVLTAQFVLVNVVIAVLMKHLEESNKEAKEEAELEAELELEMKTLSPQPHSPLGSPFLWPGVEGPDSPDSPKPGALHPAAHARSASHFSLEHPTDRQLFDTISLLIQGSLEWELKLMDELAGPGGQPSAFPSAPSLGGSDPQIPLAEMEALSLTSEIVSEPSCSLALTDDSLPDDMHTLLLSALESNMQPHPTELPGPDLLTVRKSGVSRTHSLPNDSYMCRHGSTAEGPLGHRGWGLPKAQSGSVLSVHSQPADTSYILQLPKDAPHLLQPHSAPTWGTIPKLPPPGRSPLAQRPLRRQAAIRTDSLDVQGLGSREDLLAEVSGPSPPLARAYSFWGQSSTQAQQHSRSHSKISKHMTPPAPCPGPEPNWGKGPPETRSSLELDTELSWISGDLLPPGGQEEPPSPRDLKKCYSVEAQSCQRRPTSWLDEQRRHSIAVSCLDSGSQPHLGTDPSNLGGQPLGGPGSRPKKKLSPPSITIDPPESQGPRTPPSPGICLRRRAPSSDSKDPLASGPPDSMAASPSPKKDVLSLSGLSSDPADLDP

As for `CC(C)(C)NC(=O)CN1C[C@@H]2C[C@H]1CN2CC(=O)NC12CC3CC(CC(O)(C3)C1)C2` [Compound 312], the “% Inhibition (Single Point Data)” value was found to be 4.6566%.

In the case of `CC(C)(C)NC(=O)CN1C2CC1CN(CC(=O)Nc1ccn(Cc3ccc(C#N)cn3)n1)C2` [Compound 313], the “% Inhibition (Single Point Data)” value is reported as −11.969%.

`CC(C)(C)NC(=O)CN1C[C@@H]2C[C@H]1CN2CC(=O)Nc1ccn(Cc2ccc(C#N)cn2)n1` [Compound 314]: the “% Inhibition (Single Point Data)” value is 5.0515%.

`CC(C)(C)NC(=O)CN1C2CC1CN(CC(=O)NC13CC4CC(CC(F)(C4)C1)C3)C2` [Compound 315]: the “% Inhibition (Single Point Data)” value is reported as 72.558% and the IC50 amounted to 592 nM.

On to `O=C(CN1C[C@@H]2C[C@H]1CN2CC(=O)N1CCC(F)(F)CC1)NC12CC3CC(CC(C3)C1)C2` [Compound 316], for which the “% Inhibition (Single Point Data)” value is 70.161% and the IC50 worked out at 370 nM.

For the molecule `CC1(C)CN(C(=O)CN2C[C@@H]3C[C@H]2CN3CC(=O)NC23CC4CC(CC(C4)C2)C3)C1` [Compound 317], the “% Inhibition (Single Point Data)” value is reported as 48.399% and the IC50 was found to be 1080 nM.

For `O=C(CN1C[C@@H]2C[C@H]1CN2CCC1CCC(F)(F)CC1)NC12CC3CC(CC(C3)C1)C2` [Compound 318], the “% Inhibition (Single Point Data)” value is recorded as 88.753% and the IC50 was determined as 304 nM.

Turning to `O=C(CN1C[C@@H]2C[C@H]1CN2CC(=O)NC1(C(F)(F)F)COC1)NC12CC3CC(CC(C3)C1)C2` [Compound 319], the “% Inhibition (Single Point Data)” value is 23.628% and the IC50 stood at 2080 nM.

For `COc1cc(F)cc(NC(=O)CN2C[C@@H]3C[C@H]2CN3CC(=O)NC2(C(F)(F)F)CC2)c1` [Compound 320], the “% Inhibition (Single Point Data)” value is 87.599% and the IC50 worked out at 185 nM.

Consider `CC(C)(C)NC(=O)CN1C2CC1CN(CC(=O)NC1CCCC(OC(F)F)C1)C2` (centres unmarked) [Compound 321], for which the “% Inhibition (Single Point Data)” value stood at 66.321% and the IC50 came out at 819 nM.

On to `CC(C)(C)NC(=O)CN1C2CC(CNC(=O)c3cc(F)cc(Cl)c3)CC1C2` (centres unmarked) [Compound 322], for which the “% Inhibition (Single Point Data)” value is 91.88% and the IC50 amounted to 185 nM.

`CC(C)(C)NC(=O)CN1C[C@@H]2C[C@H]1CN2CCNC(=O)C12CC3CC(CC(C3)C1)C2` [Compound 323]: the “% Inhibition (Single Point Data)” value is 17.66% and the IC50 amounted to 3390 nM.

Take `O=C(CN1C[C@@H]2C[C@H]1CN2CC(=O)NC1(C(F)(F)F)CC1)Nc1cc(F)cc(OC(F)F)c1` [Compound 324]: the “% Inhibition (Single Point Data)” value came to 100.07%.

As for `C[C@H](NC(=O)CN1CC2CC(C1)N2CC(=O)NC(C)(C)C)C12CC3CC(CC(C3)C1)C2` [Compound 325], the “% Inhibition (Single Point Data)” value was 22.59% and the IC50 was 2600 nM.

As to `C[C@H](NC(=O)CN1C[C@@H]2C[C@H]1CN2CC(=O)NC(C)(C)C)C12CC3CC(CC(C3)C1)C2` [Compound 326], the “% Inhibition (Single Point Data)” value worked out at 66.987% and the IC50 is 734 nM.

Take `Cc1cc(Cl)cc(NC(=O)CN2C[C@@H]3C[C@H]2CN3CC(=O)NC2(C(F)(F)F)CC2)c1` [Compound 327]: the “% Inhibition (Single Point Data)” value is 87.352% and the IC50 was determined as 289 nM.

As to `CC1(C)CCN1C(=O)CN1C[C@@H]2C[C@H]1CN2CC(=O)NC12CC3CC(CC(C3)C1)C2` [Compound 328], the “% Inhibition (Single Point Data)” value stood at 48.833%.

Regarding `CC(C)(CCN1C[C@@H]2C[C@H]1CN2CC(=O)NC12CC3CC(CC(C3)C1)C2)C(F)(F)F` [Compound 329], the “% Inhibition (Single Point Data)” value amounted to 59.633%.

As to `O=C(CN1C[C@@H]2C[C@H]1CN2CC(=O)NC1(C(F)(F)F)CC1)Nc1ccc(F)c(OC(F)F)c1` [Compound 330], the “% Inhibition (Single Point Data)” value turned out to be 96.893%.

For the molecule `COc1cc(NC(=O)CN2CC3CC(C2)N3CC(=O)NC(C)(C)C)ccc1Cl` [Compound 331], the “% Inhibition (Single Point Data)” value was found to be 102.24%.

As for `COc1cc(NC(=O)CN2CC3CC(C2)N3CC(=O)NC2(C(F)(F)F)CC2)ccc1Cl` [Compound 332], the “% Inhibition (Single Point Data)” value came out at 101.57%.

Regarding `COc1cc(F)cc(NC(=O)CN2CC3CC(C2)N3CC(=O)NC2(C(F)(F)F)CC2)c1` [Compound 333], the “% Inhibition (Single Point Data)” value is 82.813% and the IC50 is 178 nM.

For `COc1cc(Cl)cc(NC(=O)CN2CC3CC(C2)N3CC(=O)NC2(C(F)(F)F)CC2)c1` [Compound 334], the “% Inhibition (Single Point Data)” value worked out at 79.86%.

For the molecule `Cc1cc(F)cc(NC(=O)CN2CC3CC(C2)N3CC(=O)NC2(C(F)(F)F)CC2)c1` [Compound 335], the “% Inhibition (Single Point Data)” value came out at 84.646% and the IC50 stood at 338 nM.

For the molecule `Cc1cc(Cl)cc(NC(=O)CN2CC3CC(C2)N3CC(=O)NC2(C(F)(F)F)CC2)c1` [Compound 336], the “% Inhibition (Single Point Data)” value came out at 87.863%.

With `COc1cc(NC(=O)CN2C[C@@H]3C[C@H]2CN3CC(=O)NC(C)(C)C)ccc1Cl` [Compound 337], the “% Inhibition (Single Point Data)” value is given as 95.366% and the IC50 is below 78.2 nM.

As to `COc1cc(Cl)cc(NC(=O)CN2C[C@@H]3C[C@H]2CN3CC(=O)NC2(C(F)(F)F)CC2)c1` [Compound 339], the “% Inhibition (Single Point Data)” value is given as 87.995% and the 50% inhibitory concentration (IC50) turned out to be 249 nM.

Regarding `Cc1cc(NC(=O)CN2C[C@@H]3C[C@H]2CN3CC(=O)NC2(C(F)(F)F)CC2)ccc1F` [Compound 340], the “% Inhibition (Single Point Data)” value came out at 50%.

`Cc1cc(NC(=O)CN2C[C@@H]3C[C@H]2CN3CC(=O)NC(C)(C)C)ccc1F` [Compound 341]: the “% Inhibition (Single Point Data)” value is listed as 62.973% and the IC50 stood at 447 nM.

Regarding `COC12CC3CC(CC(NC(=O)CN4C[C@@H]5C[C@H]4CN5CC(=O)NC(C)(C)C)(C3)C1)C2` [Compound 342], the “% Inhibition (Single Point Data)” value came out at 25.743% and the IC50 came out at 1350 nM.

Consider `CC(C)(C)NC(=O)CN1C[C@@H]2C[C@H]1CN2CC(=O)NC1CCCC(OC(F)F)C1` (some centres unmarked) [Compound 343], for which the “% Inhibition (Single Point Data)” value stood at 32.872% and the IC50 is 1930 nM.

As for `CC(C)(C)NC(=O)CN1C[C@@H]2C[C@H]1CN2CC(=O)NC12CC3CC(CC(Cl)(C3)C1)C2` [Compound 344], the “% Inhibition (Single Point Data)” value came out at 79.298% and the IC50 stood at 417 nM.

For the molecule `CC(C)(C)NC(=O)CN1C2CC1CN(CC(=O)NC13CC4CC(CC(Cl)(C4)C1)C3)C2` [Compound 345], the “% Inhibition (Single Point Data)” value was 42.634% and the concentration for half-maximal inhibition (IC50) stood at 1190 nM.

For `CC(C)(C)NC(=O)CN1C[C@@H]2C[C@H]1CN2CC(=O)NC12CC3CC(C1)CC(OC(F)F)(C3)C2` [Compound 346], the “% Inhibition (Single Point Data)” value is 86.624% and the IC50 was found to be 399 nM.

As for `O=C(CN1C[C@@H]2C[C@H]1CN2CC(=O)NC1(C(F)(F)F)CC1)Nc1cc(F)c(F)c(Cl)c1` [Compound 347], the IC50 was below 78.2 nM.

Take `CC(C)(C)NC(=O)CN1C[C@@H]2C[C@H]1CN2CC(=O)Nc1cc(F)c(F)c(Cl)c1` [Compound 348]: the IC50 is below 78.2 nM.

As for `O=C(CN1CC2CC(C1)N2CC(=O)NC1(C(F)(F)F)CC1)Nc1cc(F)c(F)c(Cl)c1` [Compound 349], the concentration for half-maximal inhibition (IC50) was below 78.2 nM.

Turning to `CC(C)(C)NC(=O)CN1C2CC1CN(CC(=O)Nc1cc(F)c(F)c(Cl)c1)C2` [Compound 350], the IC50 was below 78.2 nM.

Take `COc1cc(NC(=O)CN2C[C@@H]3C[C@H]2CN3CC(=O)NC2(C(F)(F)F)CC2)cc(F)c1F` [Compound 351]: the IC50 worked out at 131 nM.

As for `COc1cc(NC(=O)CN2CC3CC(C2)N3CC(=O)NC2(C(F)(F)F)CC2)cc(F)c1F` [Compound 352], the IC50 stood at 133 nM.

For the molecule `COc1cc(NC(=O)CN2CC3CC(C2)N3CC(=O)NC(C)(C)C)cc(F)c1F` [Compound 353], the IC50 came to 97 nM.

Turning to `COc1cc(NC(=O)CN2C[C@@H]3C[C@H]2CN3CC(=O)NC(C)(C)C)cc(F)c1F` [Compound 354], the IC50 came to 94 nM.

Take `Cc1ccc(NC(=O)CN2C[C@@H]3C[C@H]2CN3CC(=O)NC2(C(F)(F)F)CC2)cc1Cl` [Compound 355]: the IC50 turned out to be 1070 nM.

For `CC(C)(C)NC(=O)CN1C[C@@H]2C[C@H]1CN2CC(=O)Nc1cc(F)c(F)c(OC(F)F)c1` [Compound 356], the half-maximal inhibitory concentration (IC50) turned out to be 74 nM.

In the case of `CC(C)(C)NC(=O)CN1C[C@@H]2C[C@H]1CN2CC(=O)Nc1ccc(Cl)c(OC(F)F)c1` [Compound 357], the IC50 was 82 nM.

Turning to `O=C(CN1C[C@@H]2C[C@H]1CN2CC(=O)NC1(C(F)(F)F)CC1)Nc1ccc(Cl)c(OC(F)F)c1` [Compound 358], the half-maximal inhibitory concentration (IC50) was 172 nM.

Consider `O=C(CN1C[C@@H]2C[C@H]1CN2CC(=O)NC1(C(F)(F)F)CC1)Nc1cc(F)c(F)c(OC(F)F)c1` [Compound 359], for which the IC50 was found to be 176 nM.

Consider `CC(C)(C)NC(=O)CN1C2CC1CN(CC(=O)Nc1cc(F)c(F)c(OC(F)F)c1)C2` [Compound 360], for which the IC50 came out at 76 nM.

In the case of `O=C(CN1CC2CC(C1)N2CC(=O)NC1(C(F)(F)F)CC1)Nc1cc(F)c(F)c(OC(F)F)c1` [Compound 361], the IC50 worked out at 127 nM.

Regarding `Cc1ccc(NC(=O)CN2C[C@@H]3C[C@H]2CN3CC(=O)NC(C)(C)C)cc1Cl` [Compound 362], the IC50 worked out at 371 nM.

Consider `CC(C)(C)NC(=O)CN1CCO[C@H](CNC(=O)c2ccc(F)c(OC(F)F)c2)C1` [Compound 367], for which the 50% inhibitory concentration (IC50) was 5720 nM.

As for `CC(C)(C)NC(=O)CN1CC2COCC(C1)C2CC(=O)Nc1cc(F)cc(Cl)c1` (centres unmarked) [Compound 368], the IC50 turned out to be 126 nM.

`CC(C)(C)NC(=O)CN1C[C@H]2COC[C@@H](C1)[C@@H]2CNC(=O)c1cc(F)cc(Cl)c1` [Compound 369]: the IC50 is 499 nM.

`CC(C)(C)NC(=O)CN1C[C@H]2COC[C@@H](C1)[C@H]2CNC(=O)c1cc(F)cc(Cl)c1` [Compound 370]: the IC50 is 1740 nM.

`CC(C)(C)NC(=O)CN1C[C@H]2COC[C@@H](C1)[C@H]2CC(=O)Nc1cc(F)cc(Cl)c1` [Compound 371]: the IC50 amounted to 1960 nM.
